Results on eight compounds are retold here after publication PMC4199632, “Exploring the Anti-Cancer Activity of Novel Thiosemicarbazones Generated through the Combination of Retro-Fragments: Dissection of Critical Structure-Activity Relationships” (PLoS ONE, 2014).

Molecules are shown by their SMILES.

In series [1] the test system is SK-N-MC neuroepithelioma cells. Kind of series: Proliferation assay (MTT, 72 h). It is filed as cell-based. The note with it: Homo sapiens, 72 h incubation, mean ±SD (3 experiments). The protocol:
(§1) The human cancer cell types (neuroepithelioma (SK-N-MC), colon cancer (HCT116 with wild-type p53 (p53^+/+)), Burkitt's lymphoma (Raji) and cervical carcinoma (HeLa)) cells and normal human dermal fibroblasts (NHDF) were obtained from the American Type Culture Collection (ATCC, Manassas, VA, USA). HCT116 null p53 (p53^−/−) cells were obtained from the Maria Sklodowska-Curie Memorial Cancer Center and Institute of Oncology, Poland.
(§2) The SK-N-MC cells were cultured in minimum essential medium (MEM; Life Technologies, Grand Island, New York, USA) containing 10% (v/v) fetal bovine serum (FBS; Life Technologies), 1 mM sodium pyruvate (Life Technologies), 1% (v/v) non-essential amino acids (Life Technologies), 2 mM L-glutamine (Life Technologies), 100 U/mL penicillin (Life Technologies), 100 µg/mL streptomycin (Life Technologies) and 0.28 µg/mL fungizone (Bristol Myers Squibb Pharmaceuticals, Montreal, Canada). The HCT116 and NHDF cells were grown in Dulbecco's modified Eagle's medium (DMEM; Sigma-Aldrich) supplemented with 12% (v/v) heat-inactivated FBS (HCT116; Life Technologies) or 15% (v/v) FBS (NHDF; Life Technologies), 100 µg/mL of gentamicin (Polfa Warszawa S.A., Warsaw, Poland), 100 µg/mL of streptomycin (Polfa) and 100 U/mL of penicillin (Polfa). The Raji and HeLa cells were cultured in Roswell Park Memorial Institute medium (RPMI-1640; Sigma-Aldrich) with the addition of 10% (v/v) heat-inactivated FBS (Life Technologies) and the supplements described for SK-N-MC cells above. All cell lines were cultured under standard conditions at 37°C in a humidified atmosphere at 5% CO2 and were subcultured every 3–4 days as required.
(§3) The cells were seeded in 96-well plates (SK-N-MC: 1.5×10^4 cells/well; HeLa: 5.0×10^3 cells/well; Raji: 3.0×10^3 cells/well; HCT116: 3.5×10^3 cells/well; NHDF: 3.0×10^3 cells/well) 24 h prior to the addition of the novel compounds. The assays were performed using a 72 h (SK-N-MC, Raji, HeLa) or 96 h (HCT 116, NHDF) incubation period with the agents at 37°C. […] Additionally, DFO and Dp44mT were included as positive controls in all experiments as their activity is well characterized, [42], [50].
(§4) Chelator stock solutions were prepared in DMSO and diluted in media so that the final [DMSO] <0.05%. The results were expressed as a percentage of the control and the resulting IC50 values were calculated using GraphPad Prism 5 (GraphPad Software, Inc., La Jolla, CA, USA). The IC50 was defined as the concentration necessary to reduce the absorbance to 50% of the untreated control. Each individual compound was tested in triplicate in a single experiment, with each experiment being repeated three times. After incubation of HCT 116 and NHDF cells with the tested compounds, 20 µL of the CellTiter 96 Aqueous One Solution - MTS (Promega, Madison, WI, USA) solution was added to each well (with 100 µL of DMEM without phenol red) and incubated for 1 h/37°C. The optical density of the samples was analyzed at 490 nm.
(§5) MTT (3-[4,5-dimethylthiazol-2-yl]-2,5-diphenyltetrazolium bromide) was used to evaluate the anti-proliferative effects of the chelators in SK-N-MC and Raji cells. Following incubation with the investigated compounds, 10 µL of MTT (5 mg/mL in PBS; Sigma-Aldrich) was added to each well. After a 2 h (SK-N-MC) or 4 h (Raji) incubation, the plates were centrifuged, and the cells were lysed with 100 µL of 10% SDS-50% isobutanol in 0.01 M HCl (SK-N-MC) or DMSO (Raji). The absorbance was measured at 570 nm. The anti-proliferative effects of these novel agents on HeLa cells were estimated using crystal violet staining (0.5% crystal violet solution for 10 min). Finally, the wells were rinsed with water and the cells were lysed with 2% SDS. The optical density of the samples was analyzed at 595 nm.

Series [2] has as its system Raji Burkitt's lymphoma cells. Kind of series: Proliferation assay (MTT, 72 h). Type of series: cell-based. The note with it: Homo sapiens, 72 h incubation, mean ±SD (3 experiments). The protocol:
as §1, §2, §3, §4, §5

The test system of series [3] is normal human dermal fibroblast (NHDF) cells. Kind of series: Proliferation assay (MTS, 96 h), normal mortal cells. It is filed as cell-based. The note with it: Homo sapiens, NHDF, 96 h, 96 h incubation, mean ±SD (3 experiments). The protocol:
as §1, §2, §3, §4

Series [4] concerns HCT116 p53+/+ colon cancer cells. Nature of the series: Proliferation assay (MTS, 96 h). It is filed as cell-based, human. The note with it: Homo sapiens, HCT-116; 96 h incubation, MTS; mean ±SD (3 experiments). As for the experimental part:
as §1, §2, §3, §4

Series [5] deals with HCT116 p53−/− colon cancer cells. Kind of series: Proliferation assay (MTS, 96 h). Type of series: cell-based, human. The note with it: Homo sapiens, HCT-116, 96 h, 96 h incubation, MTS; mean ±SD (3 experiments). As for the experimental part: as §1, §2, §3, §4
For series [6], the system named is HeLa cervical carcinoma cells. Kind of series: Proliferation assay (crystal violet, 72 h). Type of series: cell-based. The note with it: Homo sapiens, 72 h incubation, mean ±SD (3 experiments). As for the experimental part: as §1, §2, §3, §4, §5
Details of series [7]: method as in PMID 17851637, PMID 18217206, PMID 15148626. The note with it: clinical trials; cited from earlier work.
In series [8] the test system is SK-N-MC cells. Kind of series: Mobilization of cellular 59Fe (59Fe efflux). It is filed as cell-based, human. The note with it: chelator 25 µM; for 59Fe mobilization (% of cellular 59Fe released): 3 h/37°C, prelabeled SK-N-MC cells, control medium 4±1%. The protocol:
(§6) The iron transport protein, Tf (Sigma-Aldrich), was labeled with ^59Fe (PerkinElmer Life and Analytical Sciences, Boston, MA) to form ^59Fe2-Tf using standard methods, [7]. Unbound ^59Fe was removed by passage through a Sephadex G25 column and was followed by exhaustive dialysis, [7].
To examine the ability of the novel chelators to mobilize ^59Fe from SK-N-MC cells, ^59Fe efflux experiments were performed using established techniques, [51]. The monolayer of SK-N-MC cells was prelabeled for 3 h at 37°C in MEM containing ^59Fe2-Tf (0.75 µM). Cells were then washed four times with ice-cold PBS and incubated for a further 3 h at 37°C with medium alone (the control) or medium containing the chelator (25 µM). After this incubation, the overlying medium that contained the released ^59Fe was separated from the cells using a Pasteur pipette. Radioactivity was measured in both the cells and supernatant using a γ-scintillation counter (Wallac Wizard 3, Turku, Finland). In these studies, the novel ligands were compared to the previously characterized chelators, DFO and Dp44mT, as their ability to mobilize cellular ^59Fe has been extensively examined in these cells, [12], [17], [18], [50].
Figure 6 Effect of (A) series 1, (B) series 2, (C) series 3, (D) series 4, (E) series 5 and (F) series 6 chelators, relative to the controls DFO and Dp44mT, on ^59Fe mobilization from prelabeled SK-N-MC cells. Cells were incubated for 3 h/37°C with ^59Fe-transferrin (0.75 µM), washed 4 times with ice-cold PBS and then reincubated for 3 h/37°C in the presence or absence of the chelators (25 µM). Release of ^59Fe was then assessed using a γ-scintillation counter. Results are mean ±SD (3 experiments).

Series [9] concerns SK-N-MC cells. Nature of the series: Inhibition of cellular 59Fe uptake from 59Fe2-Tf. The note with it: chelator 25 µM; for Internalized 59Fe uptake from 59Fe2-Tf (% of the control): 59Fe2-Tf 0.75 µM, 3 h/37°C. It is filed as cell-based, human. As for the experimental part: as §6
The ability of the chelators to prevent the cellular uptake of ^59Fe from ^59Fe2-Tf was examined using standard methods, [14], [17], [18], [50]. A monolayer of SK-N-MC cells was incubated with medium containing ^59Fe2-Tf (0.75 µM) and the chelator (25 µM) for 3 h at 37°C. The medium was then removed and the cells were washed four times with ice-cold PBS. The cells were then incubated for 30 min at 4°C with the general protease, Pronase (1 mg/mL; Sigma-Aldrich), to remove membrane-bound ^59Fe. The cells were removed using a plastic spatula and centrifuged at 14,000 rpm/1 min to separate internalized from membrane-bound ^59Fe. The cell pellet was resuspended in 1 mL of PBS and the internalized ^59Fe was measured on a γ-scintillation counter. Internalized ^59Fe uptake was calculated as a percentage of the control (medium alone). Again, the novel ligands were compared to DFO and Dp44mT as their ability to inhibit cellular ^59Fe uptake has been extensively characterized using SK-N-MC cells, [14], [17], [18], [50].
Figure 8 Effect of (A) series 1, (B) series 2, (C) series 3, (D) series 4, (E) series 5 and (F) series 6 chelators, relative to the controls DFO and Dp44mT, on ^59Fe uptake from ^59Fe-transferrin by SK-N-MC cells. Cells were incubated for 3 h/37°C with ^59Fe-transferrin (0.75 µM) in the presence or absence of the chelators (25 µM). At the end of this incubation, cells were washed 4 times with ice-cold PBS. Internalization of ^59Fe was assessed by incubation for 30 min/4°C with the protease, Pronase (1 mg/mL). Cellular ^59Fe was then assessed using a γ-scintillation counter. Results are mean ±SD (3 experiments).

`Oc1ccccc1/C=N/NC(=S)N1CCN(c2ccccc2)CC1` [6b] returned a melting point of 206 to 207 °C. The compound also yielded an IC50 in series [1] of 5.13 ± 0.51 µM. In [2], this compound registered a 50% inhibitory concentration (IC50) of 1960 ± 850 nM. Moreover, the IC50 in series [3] amounted to 13.5 ± 4.8 µM. The compound also yielded an IC50 in [4] of 6.9 ± 2.3 µM. Besides, the IC50 in [5] is 8.86 ± 1.46 µM. The compound further came in with an IC50 in series [6] of 5.8 ± 0.48 µM.

For the compound `NC(=S)NN=Cc1ncccc1N` [Triapine, 3-aminopyridine-2-carboxaldehyde thiosemicarbazone], in series [7], the “Side effects upon administration” value was “methemoglobin formation and hypoxia”.

Regarding `S=C(NN=C(c1ccccn1)c1ccccn1)N1CCOCC1` [1c], the IC50 in series [1] turned out to be 1.21 ± 0.35 µM; in series [2] it was 3 ± 4 nM; in series [3], 0.016 ± 0.006 µM; in series [4], 0.014 ± 0.005 µM; in series [5], 0.014 ± 0.006 µM; in series [6] it was 2.21 ± 0.47 µM. In addition, the “59Fe mobilization (% of cellular 59Fe released)” value in the series on SK-N-MC cells [8] is given as 31–39%. In addition, the “Internalized 59Fe uptake from 59Fe2-Tf (% of the control)” value with SK-N-MC cells [9] was 3.6–11.5%.

Consider `S=C(N/N=C/c1ccc2ccccc2n1)N1CCN(c2ccccn2)CC1` [2d], for which the IC50 was determined as 0.52 ± 0.16 µM in [1]; 50 ± 20 nM in series [2]; 0.032 ± 0.008 µM in [3]; 0.39 ± 0.15 µM in series [4]; 0.27 ± 0.16 µM in [5]; 5.14 ± 2.87 µM in [6]. For the same compound, the “59Fe mobilization efficacy compared with controls” value in the series with SK-N-MC cells [8] (SK-N-MC cells) was “comparable release of ^59Fe relative to DFO”. Also, in the series with SK-N-MC cells [9], the “Inhibition of 59Fe uptake compared with controls” value is “comparable inhibition of ^59Fe uptake to that of DFO”.

For the compound `CCN1CCN(C(=S)N/N=C/c2c(O)ccc3cccnc23)CC1` [4a], the IC50 in series [1] turned out to be 5.09 ± 0.47 µM; in series [2] it was 3350 ± 1110 nM; in series [3], 12.1 ± 4.2 µM; in series [4], 20.2 ± 0.3 µM; in series [5], 20.3 ± 0.9 µM; in [6], 11.3 ± 1.6 µM. Also, the “59Fe mobilization (% of cellular 59Fe released)” value in the series with SK-N-MC cells [8] is 31–39%.

As to `Oc1ccc2cccnc2c1/C=N/NC(=S)N1CCOCC1` [4c], the IC50 is 4.97 ± 0.95 µM in series [1]; 3530 ± 1870 nM in [2]; over 25 µM in series [3]; 20.1 ± 0.3 µM in [4]; 19.8 ± 4.9 µM in [5]; 10.2 ± 1.2 µM in [6]. The “59Fe mobilization (% of cellular 59Fe released)” value with SK-N-MC cells [8] was 31–39%.

As to `CN(C(=S)N/N=C/c1ccc2cccc(O)c2n1)C1CCCCC1` [3f], the IC50 was over 6.25 µM in series [1]; 10 nM in series [2]; 5.36 ± 1.99 µM in series [3]; 3.11 ± 1.92 µM in series [4]; 4.35 ± 1.35 µM in series [5]; 2.57 ± 0.46 µM in series [6]. In addition, the “Internalized 59Fe uptake from 59Fe2-Tf (% of the control)” value in the series with SK-N-MC cells [9] is 3.6–11.5%.

`Oc1ccccc1/C=N/NC(=S)N1CCOCC1` [6c]: the IC50 in series [1] was over 6.25 µM; in series [2], 3790 ± 80 nM; in series [3], over 25 µM; in [4], 15.4 ± 1.7 µM; in [5], 16.4 ± 3.1 µM; in series [6], 18.2 ± 1.3 µM. The “Internalized 59Fe uptake from 59Fe2-Tf (% of the control)” value with SK-N-MC cells [9] was 3.6–11.5%.

A word on the IC50: it is the concentration needed to halve the response being measured. A low value points to greater potency. The melting point is the temperature of the solid-liquid transition.
